From ChEMBL document CHEMBL1201862, “PubChem BioAssay data set” (2004)
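How tested: cells in 96-well plates exposed to compound for 48 hours at five concentrations. GI50 is the concentration that inhibits growth by half.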 Active and inactive are the calls of the source. Rule as the data show it: active = GI50 up to about 1.1 µM and inactive = higher.

Experiments:
Test in all cases: NCI tumour cell line growth inhibition, 48 h
BT-549 = test system: BT-549
COLO 205 = test system: COLO 205
A498 = test system: A498
HCT-15 = test system: HCT-15
HCC 2998 = test system: HCC 2998
SN12C = test system: SN12C
LOX IMVI = test system: LOX IMVI
Malme-3M = test system: Malme-3M
NCI-H522 = test system: NCI-H522
DU-145 = test system: DU-145
HOP-62 = test system: HOP-62
OVCAR-5 = test system: OVCAR-5
OVCAR-3 = test system: OVCAR-3
SF-295 = test system: SF-295
HCT-116 = test system: HCT-116
MCF7 = test system: MCF7
SR = test system: SR
MDA-N = test system: MDA-N
HOP-92 = test system: HOP-92
MOLT-4 = test system: MOLT-4

## CCOC(=O)C1(C(=O)OCC)C=C(c2ccccc2)N(C2OC(COC(C)=O)C(OC(C)=O)C(OC(C)=O)C2OC(C)=O)C1=S (configuration not stated)
BT-549
  GI50: 72.3 µM (inactive)
COLO 205
  GI50: > 100 µM (inactive)
A498
  GI50: 85.1 µM (inactive)
HCT-15
  GI50: > 100 µM
HCC 2998
  GI50: > 100 µM (inactive)
SN12C
  GI50: > 100 µM (inactive)
LOX IMVI
  GI50: > 100 µM (inactive)
Malme-3M
  GI50: > 100 µM (inactive)
NCI-H522
  GI50: 73.1 µM (inactive)
DU-145
  GI50: > 100 µM (inactive)
HOP-62
  GI50: > 100 µM (inactive)
OVCAR-5
  GI50: > 100 µM (inactive)
OVCAR-3
  GI50: > 100 µM (inactive)
SF-295
  GI50: > 100 µM (inactive)
HCT-116
  GI50: > 100 µM (inactive)
MCF7
  GI50: 44.7 µM (inactive)
SR
  GI50: > 100 µM (inactive)
MDA-N
  GI50: > 100 µM (inactive)
HOP-92
  GI50: 93.3 µM (inactive)
MOLT-4
  GI50: 42.4 µM (inactive)

## Cc1cn2c(/C=C3/C(=O)Nc4ccccc43)c(C)nc2s1
BT-549
  GI50: 3.95 µM (inactive)
COLO 205
  GI50: 0.433 µM (active)
A498
  GI50: 1.33 µM (inactive)
HCT-15
  GI50: 0.679 µM
HCC 2998
  GI50: 1.84 µM (inactive)
SN12C
  GI50: 7.03 µM (inactive)
LOX IMVI
  GI50: 3.46 µM (inactive)
Malme-3M
  GI50: 2.61 µM (inactive)
NCI-H522
  GI50: 1.32 µM (inactive)
DU-145
  GI50: 3.89 µM (inactive)
HOP-62
  GI50: 3.79 µM (inactive)
OVCAR-5
  GI50: 6.55 µM (inactive)
OVCAR-3
  GI50: 0.787 µM (active)
SF-295
  GI50: 0.652 µM (active)
HCT-116
  GI50: 0.867 µM (active)
MCF7
  GI50: 0.547 µM (active)
SR
  GI50: 0.507 µM (active)
MDA-N
  GI50: 0.165 µM (active)
HOP-92
  GI50: 14.4 µM (inactive)
MOLT-4
  GI50: 0.581 µM (active)

## NC(Cc1ccc2oc3cc(=O)c4ccccc4c-3nc2c1)C(=O)O (configuration not stated)
BT-549
  GI50: 14.4 µM (inactive)
COLO 205
  GI50: 6.97 µM (inactive)
A498
  GI50: 70.6 µM (inactive)
HCT-15
  GI50: 17.8 µM
HCC 2998
  GI50: 16 µM (inactive)
SN12C
  GI50: 16.4 µM (inactive)
LOX IMVI
  GI50: 13.4 µM (inactive)
Malme-3M
  GI50: 6.52 µM (inactive)
NCI-H522
  GI50: 39.8 µM (inactive)
DU-145
  GI50: 15.5 µM (inactive)
HOP-62
  GI50: 25.9 µM (inactive)
OVCAR-5
  GI50: 66.7 µM (inactive)
OVCAR-3
  GI50: 19.6 µM (inactive)
SF-295
  GI50: 22.3 µM (inactive)
HCT-116
  GI50: 36 µM (inactive)
MCF7
  GI50: 2.86 µM (inactive)
SR
  GI50: 16.6 µM (inactive)
MDA-N
  GI50: 6.73 µM (inactive)
HOP-92
  GI50: > 78.7 µM (inactive)
MOLT-4
  GI50: 41.1 µM (inactive)

## COc1cc2c(cc1OC)C13CCN4CC5CCOC6CC(=O)N2C1C6C5CC43 (configuration not stated)
BT-549
  GI50: > 100 µM (inactive)
COLO 205
  GI50: > 100 µM (inactive)
A498
  GI50: > 100 µM (inactive)
HCT-15
  GI50: > 100 µM
HCC 2998
  GI50: > 100 µM (inactive)
SN12C
  GI50: > 100 µM (inactive)
LOX IMVI
  GI50: > 100 µM (inactive)
Malme-3M
  GI50: > 100 µM (inactive)
NCI-H522
  GI50: > 100 µM (inactive)
DU-145
  GI50: > 100 µM (inactive)
HOP-62
  GI50: > 100 µM (inactive)
OVCAR-5
  GI50: > 100 µM (inactive)
OVCAR-3
  GI50: > 100 µM (inactive)
SF-295
  GI50: > 100 µM (inactive)
HCT-116
  GI50: > 100 µM (inactive)
MCF7
  GI50: > 100 µM (inactive)
SR
  GI50: 2.65 µM (inactive)
MDA-N
  GI50: > 100 µM (inactive)
HOP-92
  GI50: > 100 µM (inactive)
MOLT-4
  GI50: 1.81 µM (inactive)

## N/C(=N/c1ccc(O)cc1)S(=O)O
BT-549
  GI50: > 100 µM (inactive)
COLO 205
  GI50: > 100 µM (inactive)
A498
  GI50: > 100 µM (inactive)
HCT-15
  GI50: > 100 µM
HCC 2998
  GI50: > 100 µM (inactive)
SN12C
  GI50: > 100 µM (inactive)
LOX IMVI
  GI50: > 100 µM (inactive)
Malme-3M
  GI50: > 100 µM (inactive)
NCI-H522
  GI50: > 100 µM (inactive)
DU-145
  GI50: > 100 µM (inactive)
HOP-62
  GI50: > 100 µM (inactive)
OVCAR-5
  GI50: > 100 µM (inactive)
OVCAR-3
  GI50: > 100 µM (inactive)
SF-295
  GI50: > 100 µM (inactive)
HCT-116
  GI50: > 100 µM (inactive)
MCF7
  GI50: > 100 µM (inactive)
SR
  GI50: > 100 µM (inactive)
MDA-N
  GI50: > 100 µM (inactive)
HOP-92
  GI50: > 100 µM (inactive)
MOLT-4
  GI50: > 100 µM (inactive)

## Cc1nccn1S(=O)(=O)c1ccc(Br)cc1Br
BT-549
  GI50: 56.2 µM (inactive)
COLO 205
  GI50: 18.6 µM (inactive)
A498
  GI50: 35.9 µM (inactive)
HCT-15
  GI50: 28.4 µM
SN12C
  GI50: 29.7 µM (inactive)
LOX IMVI
  GI50: 40.9 µM (inactive)
Malme-3M
  GI50: 50.8 µM (inactive)
NCI-H522
  GI50: 25.7 µM (inactive)
DU-145
  GI50: 42.9 µM (inactive)
OVCAR-5
  GI50: 35.1 µM (inactive)
OVCAR-3
  GI50: 22.7 µM (inactive)
SF-295
  GI50: 27.7 µM (inactive)
HCT-116
  GI50: 31.6 µM (inactive)
MCF7
  GI50: 37.5 µM (inactive)
SR
  GI50: 24.7 µM (inactive)
MDA-N
  GI50: 20.7 µM (inactive)
HOP-92
  GI50: 26.7 µM (inactive)
MOLT-4
  GI50: 29 µM (inactive)

## O=C1N2CCc3c([nH]c4ccccc34)C23CC2CCCC12S3 (configuration not stated)
BT-549
  GI50: 21.7 µM (inactive)
COLO 205
  GI50: 26.7 µM (inactive)
A498
  GI50: 33 µM (inactive)
HCT-15
  GI50: 18.1 µM
SN12C
  GI50: 20.6 µM (inactive)
LOX IMVI
  GI50: 34.2 µM (inactive)
Malme-3M
  GI50: 27.6 µM (inactive)
NCI-H522
  GI50: > 50 µM (inactive)
DU-145
  GI50: 39.4 µM (inactive)
HOP-62
  GI50: > 50 µM (inactive)
OVCAR-5
  GI50: > 50 µM (inactive)
OVCAR-3
  GI50: 39.4 µM (inactive)
SF-295
  GI50: 20.3 µM (inactive)
HCT-116
  GI50: 20.6 µM (inactive)
MCF7
  GI50: 18.7 µM (inactive)
SR
  GI50: 28.9 µM (inactive)
MDA-N
  GI50: 27.9 µM (inactive)
HOP-92
  GI50: 29 µM (inactive)
MOLT-4
  GI50: 25.8 µM (inactive)
